Active and inactive are the calls of the source. No cut-off for these calls is given here.
Tests used:
[1] = target: T1, Pancreatic triacylglycerol lipase (Homo sapiens) (UniProt P16233); test: Inhibition of Pancreatic lipase (unknown origin) using 4-methylumbelleallyl oleate as substrate at 50 uM by microplate reader assay
T1 sequence (whole entry): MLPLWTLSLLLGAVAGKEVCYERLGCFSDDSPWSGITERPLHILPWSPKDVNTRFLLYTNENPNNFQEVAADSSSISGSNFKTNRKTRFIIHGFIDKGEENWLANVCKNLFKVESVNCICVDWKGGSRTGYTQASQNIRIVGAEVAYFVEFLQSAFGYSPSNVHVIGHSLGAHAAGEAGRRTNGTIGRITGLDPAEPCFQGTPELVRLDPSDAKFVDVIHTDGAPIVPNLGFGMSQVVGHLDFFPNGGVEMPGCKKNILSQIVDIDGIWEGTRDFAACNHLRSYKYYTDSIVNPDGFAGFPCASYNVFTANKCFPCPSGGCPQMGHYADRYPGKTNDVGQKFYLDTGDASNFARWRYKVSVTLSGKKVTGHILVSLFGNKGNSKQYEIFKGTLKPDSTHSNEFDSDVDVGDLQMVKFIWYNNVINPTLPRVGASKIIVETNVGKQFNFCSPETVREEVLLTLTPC

[2] = target: T1, Pancreatic triacylglycerol lipase (Homo sapiens); test: Inhibition of Pancreatic lipase (unknown origin) using 4-methylumbelleallyl oleate as substrate at 5 uM by microplate reader assay
HepG2 [3] = test: Hypolipidemic activity in sodium oleate and sodium palmitate induced human HepG2 cells assessed as decrease in intracellular lipid content at 50 uM by Oil Red O staining based assay; format: functional; set-up: scale not given: the % may be the effect or the level left
HepG2 [4] = test: Cytotoxicity against human HepG2 cells assessed as reduction in cell survival at 50 uM; format: toxicity, cell-based; conditions: hepg2, 50 µM
HepG2 [5] = test: Hypolipidemic activity in sodium oleate and sodium palmitate induced human HepG2 cells assessed as decrease in intracellular lipid content at 5 uM by Oil Red O staining based assay; format: functional; set-up: scale not given: the % may be the effect or the level left
Mus musculus [6] = test: Hypolipidemic activity in 24hrs fasted tyloxapol induced NAFLD Kunming mouse model assessed as decrease in spleen index at 50 to 200 mg/kg, IG relative to control; format: functional, organism-based; conditions: dose 50-200 mg/kg
Mus musculus [7] = test: Reduction in oxidative stress in 24hrs fasted tyloxapol induced NAFLD Kunming mouse model assessed as decrease in hepatic MPO level at 50 to 200 mg/kg, IG and measured after 24 hrs by biochemical analysis relative to control; format: functional, organism-based; conditions: dose 50-200 mg/kg
Mus musculus [8] = test: Hypolipidemic activity in 24hrs fasted tyloxapol induced NAFLD Kunming mouse model assessed as increase in hepatic HDL-C level at 50 to 200 mg/kg, IG and measured after 24 hrs by biochemical analysis relative to control; format: functional, organism-based; conditions: dose 50-200 mg/kg
Mus musculus [9] = test: Hypolipidemic activity in 24hrs fasted tyloxapol induced NAFLD Kunming mouse model assessed as decrease in serum TG level at 50 to 200 mg/kg, IG and measured after 24 hrs by biochemical analysis relative to control; format: functional, organism-based; conditions: dose 50-200 mg/kg
HepG2 [10] = test: Anti-hyperglycemic activity in 24 hrs serum deprived human HepG2 cells assessed as alleviation in insulin resistance by measuring increase in cellular glucose consumption at 0.2 to 50 uM and measured after 24 hrs by glucose kit anlaysis; format: functional, cell-based; conditions: dose 0.2-50 µM
Mus musculus [11] = test: Amelioration of hepatic lesion in 24hrs fasted tyloxapol induced NAFLD Kunming mouse model assessed as reduction in fat deposition at 50 to 200 mg/kg, IG by Oil red O staining based analysis; format: functional, organism-based; conditions: dose 50-200 mg/kg
[12] = Reduction in hepatic inflammation in 24hrs fasted tyloxapol induced NAFLD Kunming mouse model assessed as decrease in IL-6 level in liver at 200 mg/kg, IG and measured after 24 hrs; format: functional; set-up: scale not given: the % may be the effect or the level left
Mus musculus [13] = test: Hypolipidemic activity in 24hrs fasted tyloxapol induced NAFLD Kunming mouse model assessed as increase in serum HDL-C level at 50 to 200 mg/kg, IG and measured after 24 hrs by biochemical analysis relative to control; format: functional, organism-based; conditions: dose 50-200 mg/kg
Mus musculus [14] = test: Hypolipidemic activity in 24hrs fasted tyloxapol induced NAFLD Kunming mouse model assessed as decrease in serum TC level at 50 to 200 mg/kg, IG and measured after 24 hrs by biochemical analysis relative to control; format: functional, organism-based; conditions: dose 50-200 mg/kg
Mus musculus [15] = test: Amelioration of hepatic lesion in 24hrs fasted tyloxapol induced NAFLD Kunming mouse model assessed as reduction in fat deposition at 50 to 200 mg/kg, IG by H and E staining based analysis; format: functional, organism-based; conditions: dose 50-200 mg/kg
HepG2 [16] = test: Hypolipidemic activity in sodium oleate and sodium palmitate induced human HepG2 cells assessed as decrease in intracellular lipid content at 0.2 to 50 uM by Oil Red O staining based assay; format: functional, cell-based; conditions: dose 0.2-50 µM
Mus musculus [17] = test: Hypolipidemic activity in 24hrs fasted tyloxapol induced NAFLD Kunming mouse model assessed as decrease in serum LDL-C level at 50 to 200 mg/kg, IG and measured after 24 hrs by biochemical analysis relative to control; format: functional, organism-based; conditions: dose 50-200 mg/kg
Mus musculus [18] = test: In vivo activation of AMPK pathway in 24hrs fasted tyloxapol induced NAFLD Kunming mouse model assessed as increase in ACC phosphorylation in liver at 200 mg/kg, IG and measured after 24 hrs by Western blot anlaysis; format: functional, organism-based
Mus musculus [19] = test: Hypolipidemic activity in 24hrs fasted tyloxapol induced NAFLD Kunming mouse model assessed as decrease in hepatic TG level at 50 to 200 mg/kg, IG and measured after 24 hrs by biochemical analysis relative to control; format: functional, organism-based; conditions: dose 50-200 mg/kg
HepG2 [20] = test: Hypolipidemic activity in sodium oleate and sodium palmitate induced human HepG2 cells assessed as decrease in intracellular triglyceride level at 0.2 uM; format: functional; set-up: scale not given: the % may be the effect or the level left
Mus musculus [21] = test: Amelioration of hepatic lesion in 24hrs fasted tyloxapol induced NAFLD Kunming mouse model assessed as reduction in liver index at 50 to 200 mg/kg, IG; format: functional, organism-based; conditions: dose 50-200 mg/kg
Mus musculus [22] = test: In vivo activation of AMPK pathway in 24hrs fasted tyloxapol induced NAFLD Kunming mouse model assessed as increase in AMPK phosphorylation in liver at 200 mg/kg, IG and measured after 24 hrs by Western blot anlaysis; format: functional, organism-based
Mus musculus [23] = test: Hypolipidemic activity in 24hrs fasted tyloxapol induced NAFLD Kunming mouse model assessed as decrease in hepatic TC level at 50 to 200 mg/kg, IG and measured after 24 hrs by biochemical analysis relative to control; format: functional, organism-based; conditions: dose 50-200 mg/kg
HepG2 [24] = test: Hypolipidemic activity in sodium oleate and sodium palmitate induced human HepG2 cells assessed as decrease in intracellular triglyceride level at 1 uM; format: functional; set-up: scale not given: the % may be the effect or the level left
Mus musculus [25] = test: Amelioration of hepatic lesion in 24hrs fasted tyloxapol induced NAFLD Kunming mouse model assessed as reduction in hepatic steatosis at 50 to 200 mg/kg, IG by Oil red O staining based analysis; format: functional, organism-based; conditions: dose 50-200 mg/kg
HepG2 [26] = test: Hypolipidemic activity in sodium oleate and sodium palmitate induced human HepG2 cells assessed as decrease in intracellular triglyceride level at 50 uM; format: functional; set-up: scale not given: the % may be the effect or the level left
Mus musculus [27] = test: Reduction in liver damage in 24hrs fasted tyloxapol induced NAFLD Kunming mouse model assessed as decrease in serum ALT level at 50 to 200 mg/kg, IG and measured after 24 hrs by biochemical analysis relative to control; format: functional, organism-based; conditions: dose 50-200 mg/kg
Mus musculus [28] = test: Reduction in oxidative stress in 24hrs fasted tyloxapol induced NAFLD Kunming mouse model assessed as increase in serum SOD level at 50 to 200 mg/kg, IG and measured after 24 hrs by biochemical analysis relative to control; format: functional, organism-based; conditions: dose 50-200 mg/kg
[29] = Reduction in hepatic inflammation in 24hrs fasted tyloxapol induced NAFLD Kunming mouse model assessed as decrease in IL-6 level in liver at 50 mg/kg, IG and measured after 24 hrs; format: functional; set-up: scale not given: the % may be the effect or the level left
HepG2 [30] = test: Hypolipidemic activity in sodium oleate and sodium palmitate induced human HepG2 cells assessed as decrease in intracellular lipid content at 0.2 uM by Oil Red O staining based assay; format: functional, cell-based
Mus musculus [31] = test: Reduction in liver damage in 24hrs fasted tyloxapol induced NAFLD Kunming mouse model assessed as decrease in AST level in liver at 50 to 200 mg/kg, IG and measured after 24 hrs by biochemical analysis relative to control; format: functional, organism-based; conditions: dose 50-200 mg/kg
Mus musculus [32] = test: Amelioration of hepatic lesion in 24hrs fasted tyloxapol induced NAFLD Kunming mouse model assessed as reduction in hepatic steatosis at 50 to 200 mg/kg, IG by H and E staining based analysis; format: functional, organism-based; conditions: dose 50-200 mg/kg
Mus musculus [33] = test: Amelioration of hepatic lesion in 24hrs fasted tyloxapol induced NAFLD Kunming mouse model assessed as reduction in liver morphology alteration at 50 to 200 mg/kg, IG; format: functional, organism-based; conditions: dose 50-200 mg/kg
Mus musculus [34] = test: Hypolipidemic activity in 24hrs fasted tyloxapol induced NAFLD Kunming mouse model assessed as decrease in epididymis in white adipose tissue at 200 mg/kg, IG relative to control; format: functional, organism-based
Mus musculus [35] = test: Hypolipidemic activity in 24hrs fasted tyloxapol induced NAFLD Kunming mouse model assessed as decrease in hepatic LDL-C level at 50 to 200 mg/kg, IG and measured after 24 hrs by biochemical analysis relative to control; format: functional, organism-based; conditions: dose 50-200 mg/kg
Mus musculus [36] = test: Reduction in liver damage in 24hrs fasted tyloxapol induced NAFLD Kunming mouse model assessed as decrease in serum AST level at 50 to 200 mg/kg, IG and measured after 24 hrs by biochemical analysis relative to control; format: functional, organism-based; conditions: dose 50-200 mg/kg
HepG2 [37] = test: Activation of AMPK signaling pathway in human HepG2 cells assessed as increase in AMPK phosphorylation at 0.2 to 50 uM by Western blot analysis; format: cell-based; conditions: filed as activator, dose 0.2-50 µM
Mus musculus [38] = test: Reduction in liver damage in 24hrs fasted tyloxapol induced NAFLD Kunming mouse model assessed as decrease in ALT level in liver at 50 to 200 mg/kg, IG and measured after 24 hrs by biochemical analysis relative to control; format: functional, organism-based; conditions: dose 50-200 mg/kg
HepG2 [39] = test: Hypolipidemic activity in sodium oleate and sodium palmitate induced human HepG2 cells assessed as decrease in intracellular triglyceride level at 10 uM; format: functional; set-up: scale not given: the % may be the effect or the level left
[40] = Reduction in hepatic inflammation in 24hrs fasted tyloxapol induced NAFLD Kunming mouse model assessed as decrease in IL-6 level in liver at 100 mg/kg, IG and measured after 24 hrs; format: functional; set-up: scale not given: the % may be the effect or the level left
HepG2 [41] = test: Activation of AMPK signaling pathway in human HepG2 cells assessed as increase in ACC phosphorylation at 0.2 to 50 uM by Western blot analysis; format: cell-based; conditions: filed as activator, dose 0.2-50 µM
HepG2 [42] = test: Hypolipidemic activity in sodium oleate and sodium palmitate induced human HepG2 cells assessed as decrease in intracellular triglyceride level at 5 uM; format: functional; set-up: scale not given: the % may be the effect or the level left

Structure (SMILES): O=c1cc(-c2ccc(O)c(O)c2)oc2cc(O[C@@H]3O[C@H](CO)[C@@H](O)[C@H](O)[C@H]3O)cc(O)c12 [GALUTEOLIN]
- inhibition [1]: 49.5%
- inhibition [2]: 18.1%
- Activity (HepG2 [3]): 53.2%
- Activity (HepG2 [4]): Non-Toxic
- Activity (HepG2 [5]): 62.5%

Structure (SMILES): O=C(O)CC(=O)OC[C@H]1O[C@@H](Oc2cc(O)c3c(=O)cc(-c4ccc(O)c(O)c4)oc3c2)[C@H](O)[C@@H](O)[C@@H]1O
- inhibition [1]: 65.8%
- Activity (HepG2 [3]): 57.1%
- Activity (HepG2 [4]): Non-Toxic
- Activity (HepG2 [5]): 61.5%

Structure (SMILES): O=C(O)CC(=O)OC[C@H]1O[C@@H](Oc2cc(O)c3c(=O)cc(-c4ccc(O)cc4)oc3c2)[C@H](O)[C@@H](O)[C@@H]1O
- Activity (Mus musculus [6]): Active
- Activity (Mus musculus [7]): Active
- Activity (Mus musculus [8]): Active
- Activity (Mus musculus [9]): Active
- Activity (HepG2 [10]): Active
- inhibition [1]: 47.2%
- Activity (Mus musculus [11]): Active
- Activity [12]: 18.03%
- Activity (Mus musculus [13]): Active
- Activity (Mus musculus [14]): Active
- Activity (Mus musculus [15]): Active
- Activity (HepG2 [16]): Dose-Dependent Effect
- Activity (Mus musculus [17]): Active
- Activity (Mus musculus [18]): Active
- Activity (Mus musculus [19]): Active
- inhibition [2]: 35%
- Activity (HepG2 [20]): 48.6%
- Activity (Mus musculus [21]): Active
- Activity (HepG2 [3]): 67.3%
- Activity (Mus musculus [22]): Active
- Activity (Mus musculus [23]): Active
- Activity (HepG2 [24]): 52.2%
- Activity (Mus musculus [25]): Active
- Activity (HepG2 [26]): 73%
- Activity (Mus musculus [27]): Active
- Activity (HepG2 [4]): Non-Toxic
- Activity (Mus musculus [28]): Active
- Activity [29]: 23.68%
- Activity (HepG2 [30]): Active
- Activity (Mus musculus [31]): Active
- Activity (Mus musculus [32]): Active
- Activity (Mus musculus [33]): Active
- Activity (HepG2 [5]): 74.9%
- Activity (Mus musculus [34]): Active
- Activity (Mus musculus [35]): Active
- Activity (Mus musculus [36]): Active
- Activity (HepG2 [37]): Active
- Activity (Mus musculus [38]): Active
- Activity (HepG2 [39]): 55.1%
- Activity [40]: 22.44%
- Activity (HepG2 [41]): Active
- Activity (HepG2 [42]): 54.7%

From ChEMBL document CHEMBL5321223, “Effects and mechanism of action of Chrysanthemum morifolium (Jinsi Huangju) on hyperlipidemia and non-alcoholic fatty liver disease” (Eur J Med Chem, 2023)
